The values that follow are results of earlier work, collected in patent US20130084245A1, “PET MONITORING OF A-BETA-DIRECTED IMMUNOTHERAPY” (Wyeth LLC, priority 2010, published 2013).

The target of data set [1] is T1, Aβ deposits (Homo sapiens, UniProt P05067).
T1 construct: aggregated fibrillar deposits of the Aβ peptide
The settings on record: preliminary study.

In data set [2] the target is T2, aggregated fibrillar deposits of the Aβ peptide (Homo sapiens, UniProt P05067).
T2 construct: aggregated fibrillar deposits of the Aβ peptide
T2 sequence (P05067 672-713 limits assumed): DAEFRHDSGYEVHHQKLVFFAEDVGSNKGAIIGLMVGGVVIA

The target in data set [3] is T1, Aβ deposits. The settings on record: areas of brain association cortex targeted by Aβ deposits.

T1 sequence (P05067 672-713 limits assumed): as above

With `CNc1ccc(/C=C/c2ccc(OCCOCCOCC[18F])cc2)cc1` [^18F-BAY94-9172], the “Performance as PET ligand in AD and controls” value in data set [1] is recorded as “performed comparably to ^11C-PIB”.
In the case of `CNc1ccc(-c2nc3ccc(O)cc3s2)cc1` [PiB, 2-(4′-methylaminophenyl)-6-hydroxybenzothiazole], the “Affinity for aggregated fibrillar deposits of the Aβ peptide” value in data set [2] is on record as “low nanomolar affinity”. For the same compound, in data set [2] (low nanomolar concentrations typically used in PET studies), the “Selectivity of binding to postmortem human brain” value is recorded as “selective for fibrillar Aβ deposits”. The “Retention in AD patients compared with controls” value in data set [3] was “approximately two-fold”.
